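Cells were grown in 96-well plates and exposed to each compound for 48 hours at five concentrations; endpoints were interpolated linearly between bracketing concentrations, or set to the highest concentration if not reached. TGI: total growth inhibition.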
Assays:
Assay in all cases: inhibition of tumour cell growth, NCI panel, 48 h
SK-MEL-2 melanoma = test system: SK-MEL-2 melanoma
RXF-631 renal = test system: RXF-631 renal
NCI-H226 lung = test system: NCI-H226 lung
SF-295 CNS = test system: SF-295 CNS
HCT-116 colon = test system: HCT-116 colon
OVCAR-3 ovarian = test system: OVCAR-3 ovarian
NCI-H23 lung = test system: NCI-H23 lung
786-0 renal = test system: 786-0 renal
A549 NSCLC = test system: A549 NSCLC
SF-268 CNS = test system: SF-268 CNS
UO-31 renal = test system: UO-31 renal
HCC-2998 colon = test system: HCC-2998 colon
A498 renal = test system: A498 renal
CCRF-CEM leukemia = test system: CCRF-CEM leukemia
RXF 393 renal = test system: RXF 393 renal
OVCAR-5 ovarian = test system: OVCAR-5 ovarian
MALME-3M melanoma = test system: MALME-3M melanoma
SNB-19 CNS = test system: SNB-19 CNS
SK-MEL-5 melanoma = test system: SK-MEL-5 melanoma
SK-OV-3 ovarian = test system: SK-OV-3 ovarian
CAKI-1 renal = test system: CAKI-1 renal
LXFL 529 NSCLC = test system: LXFL 529 NSCLC
SK-MEL-28 melanoma = test system: SK-MEL-28 melanoma
TK-10 renal = test system: TK-10 renal
SW-620 colon = test system: SW-620 colon
HT29 colon = test system: HT29 colon
IGROV1 ovarian = test system: IGROV1 ovarian
KM12 colon = test system: KM12 colon
SNB-75 CNS = test system: SNB-75 CNS
NCI-H522 lung = test system: NCI-H522 lung
ACHN renal = test system: ACHN renal
K-562 leukemia = test system: K-562 leukemia
HL-60(TB) leukemia = test system: HL-60(TB) leukemia
UACC-62 melanoma = test system: UACC-62 melanoma
HOP-18 NSCLC = test system: HOP-18 NSCLC
NCI-H460 lung = test system: NCI-H460 lung
SNB-78 CNS = test system: SNB-78 CNS
HOP-92 NSCLC = test system: HOP-92 NSCLC
RPMI-8226 leukemia = test system: RPMI-8226 leukemia
DMS 273 small cell lung = test system: DMS 273 small cell lung
OVCAR-8 ovarian = test system: OVCAR-8 ovarian
UACC-257 melanoma = test system: UACC-257 melanoma
SF-539 CNS = test system: SF-539 CNS
SR leukemia = test system: SR leukemia
COLO 205 colon = test system: COLO 205 colon
DMS 114 small cell lung = test system: DMS 114 small cell lung
MOLT-4 leukemia = test system: MOLT-4 leukemia
SN12C renal = test system: SN12C renal
DLD-1 colon = test system: DLD-1 colon
U251 CNS = test system: U251 CNS

Measured: TGI

ClC[Si]12OCCN(CCO1)CCO2
> 100 µM: all assays above

From PubChem BioAssay (NCI)
